Results: patent US20110003898A1, “MEDICAL GLUES FOR SURGERY COMPRISING BIOACTIVE COMPOUNDS” (Bayer MaterialScience AG, priority 2008, published 2011)

Tests used:
Type in all cases: physicochemical
[1] = Film formation on the skin, cure time to disappearance of surface tackiness; conditions: adhesive with 2-5% active ingredient; ^2 = suspension
Source text: (§1) 0.45 g of PEG 200 were mixed thoroughly with 0.55 g of aspartate B and 2-5% of the active ingredient. The solution was stirred with 4 g of prepolymer A and applied to the tissue. We tested for processing time and the effect of adhesion to meat as well as the formation of a film on the skin.

[2] = Active substance release from adhesive film into physiological saline (HPLC-UV/MS); conditions: 37° C., 2 h; for Release: 5x5 cm section (0.5 g) in 20 g physiological saline; for Amount of active substance released [%]: physiological saline
Method: For the quantitative determination of the active substance release, a transparent film with a thickness of 200 ? was produced by knife coating from 4 g of prepolymer A, 0.45 g of PEG 200, […] A section measuring 5×5 cm (weight: 0.5 g) was cut from this film, placed in a petri dish, covered with 20 g of physiological saline solution, and stored in an incubator at 37° C. for 2 h. The quantitative determination was carried out via HPLC-UV/MS (HPLC column: Inertsil ODS 3 5 □ 120 A 125 mm*2.1 mm 60° C.; eluent A: 25 mmol ammonium acetate in water, eluent B: 25 mmol ammonium acetate in methanol).

[3] = Pot life (processing time) of adhesive with active ingredient; conditions: 0.45 g PEG 200, 0.55 g aspartate B, 2-5% active ingredient, 4 g prepolymer A; ^2 = active substance in suspension
Source text: as §1

[4] = 250 mg active substance in film
[5] = 100 mg active substance in film

SMILES | Film formation cure time [min to disappearance of surface tackiness] [1] [min] | other results
COc1ccc2c(c1)c(CC(=O)OCC(=O)O)c(C)n2C(=O)c1ccc(Cl)cc1 [acemetacine] | 7 | 
CC(=O)Oc1ccccc1C(=O)O [acetylsalicylic acid] | 4 | Release [2, 4]: 320 mg/L; Amount of active substance released [%] [2, 4]: 25.6%
CCOC(=O)c1ccc(N)cc1 [benzocaine] | 6 | 
CCCCN1CCCCC1C(=O)Nc1c(C)cccc1C (stereo not shown) [bupivacaine] | 6 | 
O=C(N[C@H](CO)[C@H](O)c1ccc([N+](=O)[O-])cc1)C(Cl)Cl [chloramphenicol] | 5 | Release [2, 4]: 646 mg/L; Amount of active substance released [%] [2, 4]: 51.7%
[H]/N=C(\N/C(=N/[H])NCCCCCCNC(=N)NC(=N)Nc1ccc(Cl)cc1)Nc1ccc(Cl)cc1 [chlorhexidine] | 3 | Pot life [3]: 0.5 min
C[C@]12CCC(=O)C=C1CC[C@@H]1[C@@H]2C(=O)C[C@@]2(C)[C@H]1CC[C@]2(O)C(=O)CO [cortisone] | 5 | Release [2, 5]: 230 mg/L; Amount of active substance released [%] [2, 5]: 46%
CCN1CCN(c2cc3c(cc2F)c(=O)c(C(=O)O)cn3C2CC2)CC1 [enrofloxazine] | 4 | Pot life [3]: 1 min
CC[C@H]1OC(=O)[C@H](C)[C@@H](O[C@H]2C[C@@](C)(OC)[C@@H](O)[C@H](C)O2)[C@H](C)[C@@H](O[C@@H]2O[C@H](C)C[C@H](N(C)C)[C@H]2O)[C@](C)(O)C[C@@H](C)C(=O)[C@H](C)[C@@H](O)[C@]1(C)O [erythromycin] | 6 | 
OC(Cn1cncn1)(Cn1cncn1)c1ccc(F)cc1F [fluconazole] | 15 | Pot life [3]: 3 min
O=C1OC(CN2CCOCC2)CN1/N=C/c1ccc([N+](=O)[O-])o1 (stereo not shown) [furaldatone] | 4 | 
CC(C)Cc1ccc(C(C)C(=O)O)cc1 (stereo not shown) [ibuprofen] | 6 | 
CCN(CC)CC(=O)Nc1c(C)cccc1C [lidocaine] | 4 | Release [2, 4]: 570 mg/L; Amount of active substance released [%] [2, 4]: 45.6%
Cc1ncc([N+](=O)[O-])n1CCO [metronidazole] | 5 | Pot life [3]: 2 min
CCn1cc(C(=O)O)c(=O)c2ccc(C)nc21 [nalidixic acid] | 5 | Release [2, 5]: 110 mg/L; Amount of active substance released [%] [2, 5]: 22%
CC(=O)Nc1ccc(O)cc1 [paracetamol] | 7 | Release [2, 5]: 136 mg/L; Amount of active substance released [%] [2, 5]: 27.2%
CC(=O)NS(=O)(=O)c1ccc(N)cc1 [sulfacetamide] | 5 | 
CCCCNc1ccc(C(=O)OCCN(C)C)cc1 [tetracaine] | 7 | 
Cc1ccc(C(C)C)c(O)c1 [thymol] | 5 | 
COc1cccc(C2(O)CCCCC2CN(C)C)c1 (stereo not shown) [tramadol] | 4 | 
Oc1cc(Cl)ccc1Oc1ccc(Cl)cc1Cl [triclosan (Irgasan), 2,4,4′-trichloro-2′-hydroxydiphenyl ether] | 5 | 
